Measured values: US20250326779A1, “ANTI-HIV COMPOUNDS” (priority 2024, published 2025)
≈ marks a conversion by molar mass, not a printed value.

Key:
[1] = pH 7 Stability Assay; type: physicochemical; settings: ACN/pH 7.4 buffer with 1% DMSO stock; 1/49.5/49.5% v/v DMSO stock/ACN/pH 7.4 buffer, UPLC 0-24 h; read-out: pH7 T½
Method: pH 7 Stability Assay: A sample stock at approximately 10 mg/mL of each test compound was prepared with dimethyl sulfoxide (DMSO) in vials. […] Sample vials were prepared by adding 495 μL ACN into a UPLC vial followed by 495 μL pH 7.4 buffer. Then 10 μL test compound stock solution from the first step was added to that UPLC vial. 1000 uL 50/50% v/v ACN/Water was used as diluent blank.
Metabolic stabilities were determined by measuring the rates of disappearance of test compound and positive control substrate. • Data (% of substrate remaining) were plotted on a semi-log scale and fitted using an exponential decline model:
[formula] • Assuming a first-order reaction, the slope (k) is extrapolated from the aforementioned plotted data.

[2] = Solubility in FaSSIF; type: physicochemical; settings: 23 °C, thermodynamic from solid; FaSSIF pH 6.5, 5 mg/mL dose concentration, 2-hour incubation, ambient temperature
Method: Buffer Preparation: Fasted State Simulated Intestinal Fluid (FaSSIF): Simulated Intestinal Fluid (SIF) powder containing a complex of Taurocholate and Lecithin (4:1 molar ratio) was obtained from Biorelevant. […] The buffer was prepared with HPLC H2O.
Test Compounds: Each test compound was placed in a vial containing approximately 7 mg of material. Aliquots were weighed out for each assay media at each time point to be analyzed. The buffer was added to each vial such that the final dose concentration of 5 mg/mL was achieved. Samples were then vortexed for 5-10 seconds.
The plate was sealed with a pierceable heat seal and analyzed by HPLC-UV.

[3] = target: T1, bovine intestinal alkaline phosphatase (Bos taurus, UniProt P19111); test: BiALP: conversion by bovine intestinal alkaline phosphatase; type: in vitro ADME; settings: remaining substrate after 60 min at 37° C., 2 μM substrate, 100 ng/mL iALP, Tris buffer pH 7.8
T1 construct: purchased Millipore Sigma (St. Louis, MO) or Thermo Fisher Scientific (Waltham, MA)
Method: Fosamprenavir and its parent compound (amprenavir) were purchased from Millipore Sigma (St. Louis, MO). Test compounds, Intermediate A, fosamprenavir, and amprenavir were each separately dissolved in dimethyl sulfoxide (DMSO) at a concentration of 10 mM to form stock solutions.
All other chemicals were purchased from Millipore Sigma (St. Louis, MO) and Thermo Fisher Scientific (Waltham, MA). The chemicals included purified bovine intestinal alkaline phosphatase as a lyophilized powder (specific activity: 101 diethanolamine units/mg solid). Internal Standard/Quench (IS/Q) was 100 nM labetalol in 99:1 (v/v) acetonitrile/formic acid.
Incubations were performed with Tris buffer alone (0.1 M Tris-HCl pH 7.8 containing 1 mM MgCl2 and 1 mM ZnCl2) or the same Tris buffer further containing 100 ng/mL iALP (0.01 units/mL). Triplicate 100 μL aliquots of Tris buffer±iALP were warmed to 37° C. and the reactions were initiated by the addition of the test compound or fosamprenavir to obtain final substrate concentrations of 2 μM. Incubations were then continued at 37° C. […] Aliquots (15 μL) of the diluted supernatants were analyzed by mass spectrometry as described below.
Quantification of the test compounds and fosamprenavir was performed by analyte/internal standard peak area ratios (PARs) with comparison to 2 μM Intermediate A and amprenavir, respectively. […]

[4] = tested on: HIV-1 IIIB strain; test: MT-4 HIV Wild Type Virus Infection Assay (IIIB Virus); type: cell-based; settings: Human immunodeficiency virus 1, MT4, 120 h; MT-4 cells acutely infected with HIV-1 IIIB, 5 day incubation, Cell-titer glo
Method: MT-4 HIV Wild Type Virus Infection Assay (IIIB Virus)
Test compounds and controls were serially diluted and spotted in replicate into 384 well black assay plates via acoustic transfer (Echo). MT-4 cells were grown in batch, centrifuged and resuspended into fresh CCM media (RPMI w/10% FBS, 1% PS) at 2×10^6 cells/ml. MT-4 cells were acutely infected with HIV-1 IIIB strain. The size of each infection mix was scaled by the number of sample plates to be tested. Each infection mix was transferred into 5 mL closed tubes and nutated rapidly on a shaker at 37° C. incubator for 1 hour. The infection mixes were then diluted 25× in fresh cell culture media and then added to assay plates at 40 μL per well using a ViaFlo 384 pipettor. After 5 day incubation at 37° C. in a C02 incubator, assay plates were processed with Cell-titer glo reagent using a ViaFlo 384 with an addition/mixing program. Plates were read immediately on Envision reader. Assay signals were plotted and dose response curves generated to determine individual compound EC50s.

[5] = Intestinal S9 Assay (dog); type: in vitro ADME; settings: pooled intestinal S9 fraction, 1.0 mg/mL S9 protein, 2 μM substrate, TRIS pH 7.4, read-out: Dog GI S9 T½
Method: (§1) Reagents. Stock solutions of test compounds in dimethyl sulfoxide (DMSO) having a final concentration of 10 mM were prepared and used in all experiments. Sekisui XenoTech (Kansas City, KS) provided pooled intestinal S9 fractions. All other chemicals were purchased from Sigma-Aldrich (St. Louis, MO) or VWR (West Chester, PA).
(§2) Intestinal S9 Assay: For each test compound, an aliquot of the test compound was added to S9 stock diluted with TRIS buffer (100 mM TRIS, 1 mM ZnCl2, 1 mM MgCl2), pH 7.4, to obtain an incubation protein concentration of 1.0 mg/mL. The incubation was initiated by the addition of the substrate to the S9 reaction mixture to a final concentration of 2 μM. […] After quenching, the plates were centrifuged at 3000×g for 30 minutes. 150 μL aliquots of each supernatant were transferred to new plates and 150 μL water was added. Aliquots (10 μL) of the prepared samples were analyzed on a Thermo Q-Exactive mass spectrometer as described below.
(§3) Liquid Chromatography-Mass Spectrometry: Quantification of test compounds and control substrate was performed by analyte/internal standard peak area ratio (PAR) values measured on a Thermo Q-Exactive mass spectrometer coupled to a Dionex UltiMate 3000 HPLC with a Leap Technologies HTC PAL autosampler. The column used for analysis was a Thermo Scientific Hypersil GOLD (1.9 μm particle size, 50×2.1 mm). […]

[6] = Intestinal S9 Assay (human); type: in vitro ADME; settings: pooled intestinal S9 fraction, 1.0 mg/mL S9 protein, 2 μM substrate, TRIS pH 7.4, read-out: Human GI S9 T½
Method: as §1, §2, §3

T1 sequence (P19111 20-506 limits assumed): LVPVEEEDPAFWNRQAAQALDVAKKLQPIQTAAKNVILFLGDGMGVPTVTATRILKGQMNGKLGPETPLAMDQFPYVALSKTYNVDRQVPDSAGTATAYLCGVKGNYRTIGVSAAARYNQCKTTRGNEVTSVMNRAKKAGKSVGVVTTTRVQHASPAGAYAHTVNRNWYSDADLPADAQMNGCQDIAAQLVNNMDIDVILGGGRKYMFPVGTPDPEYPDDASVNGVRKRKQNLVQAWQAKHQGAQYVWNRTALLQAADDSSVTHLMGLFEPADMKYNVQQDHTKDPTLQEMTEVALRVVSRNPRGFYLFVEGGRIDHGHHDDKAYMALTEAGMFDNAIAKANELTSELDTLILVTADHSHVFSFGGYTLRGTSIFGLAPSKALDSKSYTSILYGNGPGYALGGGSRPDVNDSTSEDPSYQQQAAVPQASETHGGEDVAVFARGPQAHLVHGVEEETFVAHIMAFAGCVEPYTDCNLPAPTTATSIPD

SMILES	half-life at 0.1 mg/mL [1] [h]	solubility at 2 h [2] [µg/mL]	[Compound] [3] [nM]	EC50 [4] [nM]	half-life at 2 μM [5] [h]	half-life at 2 μM [6] [h]
COC(=O)N[C@H](C(=O)N[C@@H](Cc1ccc(C#Cc2cnc(N3CC4CCC(C3)N4C3COC3)nc2)cc1)[C@H](CN(Cc1c(F)cc(-c2ccn(C(F)F)n2)cc1F)NC(=O)[C@@H](NC(=O)OC)C(C)(C)C(F)(F)F)OCOP(=O)(O)O)C(C)(C)C(F)(F)F [Compound 1, methyl ((5S,8S,9S,14S)-11-(4-(1-(difluoromethyl)-1H-pyrazol-3-yl)-2,6-difluorobenzyl)-16,16,16-trifluoro-15,15-dimethyl-8-(4-((2-(8-(oxetan-3-yl)-3,8-diazabicyclo[3.2.1]octan-3-yl)pyrimidin-5-yl)ethynyl)benzyl)-3,6,13-trioxo-9-((phosphonooxy)methoxy)-5-(1,1,1-trifluoro-2-methylpropan-2-yl)-2-oxa-4,7,11,12-tetraazahexadecan-14-yl)carbamate]	> 480	580 (≈ 458 µM)	1691	22.3	1.36	0.787
CC(C)CN(C[C@@H](OP(=O)(O)O)[C@H](Cc1ccccc1)NC(=O)O[C@H]1CCOC1)S(=O)(=O)c1ccc(N)cc1 [Fosamprenavir, reference compound]			1605			
